From ChEMBL document CHEMBL5500325, “Identification of ethyl-6-bromo-2((phenylthio)methyl)imidazo[1,2-a]pyridine-3-carboxylate as a narrow spectrum inhibitor of Streptococcus pneumoniae and its FtsZ” (Eur J Med Chem, 2024)
Converted amounts (≈) assume the structure as drawn. The source made the active and inactive calls. The calls are words filed in the database; no cut-off is given here.

Tests used:
[1] = molecular target: T1, Cell division protein FtsZ (Streptococcus pneumoniae serotype 2 (strain D39 / NCTC 7466)) (UniProt A0A0H2ZNE0); assay: Inhibition of Streptococcus pneumoniae FtsZ assessed as inhibition of extent of polymerization at 30 uM pretreated for 20 mins followed by GTP addition and measured for 20 mins by light scattering based analysis; conditions: time 40.0 min
T1 sequence (whole entry): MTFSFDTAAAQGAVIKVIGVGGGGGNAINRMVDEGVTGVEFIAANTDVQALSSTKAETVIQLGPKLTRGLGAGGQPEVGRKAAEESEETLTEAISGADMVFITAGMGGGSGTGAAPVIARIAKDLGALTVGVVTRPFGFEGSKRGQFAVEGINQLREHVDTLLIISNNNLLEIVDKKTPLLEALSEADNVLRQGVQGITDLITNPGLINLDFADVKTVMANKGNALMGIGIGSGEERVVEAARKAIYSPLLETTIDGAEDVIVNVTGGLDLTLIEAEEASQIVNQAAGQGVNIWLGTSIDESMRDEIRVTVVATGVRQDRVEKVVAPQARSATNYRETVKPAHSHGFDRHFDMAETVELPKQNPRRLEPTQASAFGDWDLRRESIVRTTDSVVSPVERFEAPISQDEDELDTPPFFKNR

[2] = test system: Klebsiella pneumoniae; assay: Antibacterial activity against Klebsiella pneumoniae assessed as inhibition of bacterial growth at 10 to 20 uM incubated for 4 hrs; assay type: functional, organism-based; conditions: dose 10-20 µM
[3] = test system: Streptococcus pneumoniae; assay: Bactericidal activity against Streptococcus pneumoniae TIGR4 assessed as induction of cell death by measuring proportion of PI-stained bacteria at 20 ug/ml incubated for 12 hrs by propidium iodide staining based confocal microscopy (reference value: 2%); assay type: functional; conditions: dose 20 µg/ml
[4] = molecular target: T1, Cell division protein FtsZ (Streptococcus pneumoniae serotype 2 (strain D39 / NCTC 7466)); assay: Inhibition of Streptococcus pneumoniae FtsZ assessed as time required to start of polymerization at 40 uM pretreated for 20 mins followed by GTP addition and measured for 20 mins by tryptophan fluorescence based spectrofluorometric analysis (reference value: 37 +/-18 sec); conditions: time 40.0 min
[5] = test system: Staphylococcus aureus; assay: Antibacterial activity against Staphylococcus aureus assessed as inhibition of bacterial growth at 10 to 20 uM incubated for 4 hrs; assay type: functional, organism-based; conditions: dose 10-20 µM
[6] = molecular target: T1, Cell division protein FtsZ (Streptococcus pneumoniae serotype 2 (strain D39 / NCTC 7466)); assay: Inhibition of Streptococcus pneumoniae FtsZ polymerization assessed as length of polymers at 40 uM preincubated for 20 mins followed by GTP addition for 200 secs and later incubated on copper-TEM grid for 5 mins by transmission electron microscopy (reference value: 61 +/-26 nm); conditions: time 1700.0 sec
[7] = test system: Bacillus subtilis; assay: Antibacterial activity against Bacillus subtilis 168 assessed as inhibition of bacterial growth at 10 to 20 uM incubated for 4 hrs; assay type: functional, organism-based; conditions: dose 10-20 µM
[8] = molecular target: T1, Cell division protein FtsZ (Streptococcus pneumoniae serotype 2 (strain D39 / NCTC 7466)); assay: Inhibition of Streptococcus pneumoniae FtsZ assessed as inhibition of extent of polymerization at 40 uM pretreated for 20 mins followed by GTP addition and measured for 20 mins by light scattering based analysis; conditions: time 40.0 min
[9] = test system: Streptococcus pneumoniae; assay: Antibacterial activity against Streptococcus pneumoniae TIGR4 assessed as inhibition of bacterial proliferation incubated for 24 hrs by CLSI based analysis; assay type: functional, organism-based
[10] = molecular target: T1, Cell division protein FtsZ (Streptococcus pneumoniae serotype 2 (strain D39 / NCTC 7466)); assay: Inhibition of Streptococcus pneumoniae FtsZ assessed as inhibition of rate of polymerization at 40 uM pretreated for 20 mins followed by GTP addition and measured for 20 mins by tryptophan fluorescence based spectrofluorometric analysis; conditions: time 40.0 min
[11] = test system: Vibrio cholerae; assay: Antibacterial activity against Vibrio cholerae assessed as inhibition of bacterial growth at 10 to 20 uM incubated for 4 hrs; assay type: functional, organism-based; conditions: dose 10-20 µM
[12] = test system: Escherichia coli; assay: Antibacterial activity against Escherichia coli K12 assessed as inhibition of bacterial growth at 10 to 20 uM incubated for 4 hrs; assay type: functional, organism-based; conditions: dose 10-20 µM
[13] = molecular target: T1, Cell division protein FtsZ (Streptococcus pneumoniae serotype 2 (strain D39 / NCTC 7466)); assay: Inhibition of Streptococcus pneumoniae FtsZ assessed as increase in GTPase activity by measuring increase in inorganic phosphate release upto 20 uM pretreated for 20 mins followed by GTP addition and measured after 10 mins by malachite green assay based UV-Vis spectrophometry; conditions: time 30.0 min
[14] = test system: Streptococcus pneumoniae; assay: Induction of DNA nucleoid segregation in Streptococcus pneumoniae at 40 uM incubated for 30 mins by DAPI staining based immunostaining analysis; assay type: functional, organism-based
[15] = test system: Streptococcus pneumoniae; assay: Induction of membrane disruption in Streptococcus pneumoniae TIGR4 at 40 uM incubated for 30 mins by FM4-64 live cell staining based confocal microscopy; assay type: functional, organism-based
[16] = test system: Bacillus subtilis; assay: Antibacterial activity against Bacillus subtilis 168 assessed as inhibition of bacterial growth at 10 uM incubated for 6 hrs by agar plate assay; assay type: functional, organism-based
[17] = molecular target: T1, Cell division protein FtsZ (Streptococcus pneumoniae serotype 2 (strain D39 / NCTC 7466)); assay: Inhibition of Streptococcus pneumoniae FtsZ polymerization at 20 uM preincubated for 20 mins followed by GTP addition for 3 mins by atomic force microscopy; conditions: time 23.0 min
[18] = test system: Streptococcus pneumoniae; assay: Antibacterial activity against Streptococcus pneumoniae TIGR4 assessed as inhibition of bacterial growth at 10 uM incubated for 24 hrs by agar plate assay; assay type: functional
[19] = molecular target: T1, Cell division protein FtsZ (Streptococcus pneumoniae serotype 2 (strain D39 / NCTC 7466)); assay: Inhibition of FtsZ in Streptococcus pneumoniae assessed as propotion of cells with intact Z-ring at 40 uM incubated for 30 mins by DAPI staining based immunostaining analysis (reference value: 92%); set-up: scale not given: the % may be the effect or the level left
[20] = molecular target: T1, Cell division protein FtsZ (Streptococcus pneumoniae serotype 2 (strain D39 / NCTC 7466)); assay: Inhibition of Streptococcus pneumoniae FtsZ polymerization at 5 to 40 uM pretreated for 20 mins followed by GTP addition and measured for 20 mins by tryptophan fluorescence based spectrofluorometric analysis; conditions: dose 5-40 µM, time 40.0 min
[21] = molecular target: T1, Cell division protein FtsZ (Streptococcus pneumoniae serotype 2 (strain D39 / NCTC 7466)); assay: Inhibition of FtsZ in Streptococcus pneumoniae assessed as improper distribution of FtsZ throughout the cells at 40 uM incubated for 30 mins by DAPI staining based immunostaining analysis
[22] = test system: Streptococcus pyogenes; assay: Antibacterial activity against Streptococcus pyogenes assessed as inhibition of bacterial growth at 10 to 20 uM incubated for 20 hrs; assay type: functional, organism-based; conditions: dose 10-20 µM
[23] = test system: Streptococcus pneumoniae; assay: Bactericidal activity against Streptococcus pneumoniae TIGR4 assessed as induction of cell death by measuring proportion of PI-stained bacteria at 40 ug/ml incubated for 12 hrs by propidium iodide staining based confocal microscopy (reference value: 2%); assay type: functional; conditions: dose 40 µg/ml
[24] = molecular target: T1, Cell division protein FtsZ (Streptococcus pneumoniae serotype 2 (strain D39 / NCTC 7466)); assay: Inhibition of Streptococcus pneumoniae FtsZ polymerization assessed as very short and thin polymers at 40 uM preincubated for 20 mins followed by GTP addition for 200 secs and later incubated on copper-TEM grid for 5 mins by transmission electron microscopy; conditions: time 1700.0 sec
[25] = molecular target: T1, Cell division protein FtsZ (Streptococcus pneumoniae serotype 2 (strain D39 / NCTC 7466)); assay: Inhibition of Streptococcus pneumoniae FtsZ assessed as rate of polymerization at 40 uM pretreated for 20 mins followed by GTP addition and measured for 20 mins by tryptophan fluorescence based spectrofluorometric analysis (reference value: 0.19 +/-0.02 au/s); conditions: time 40.0 min
[26] = Antiproliferative activity against human HeLa cells assessed as inhibition of cell growth incubated for 24 hrs by SRB assay; assay type: toxicity, cell-based
[27] = test system: Bacillus subtilis; assay: Antibacterial activity against Bacillus subtilis; assay type: functional
[28] = test system: Mycobacterium tuberculosis; assay: Antibacterial activity against Mycobacterium tuberculosis H37; assay type: functional
[29] = test system: Bacillus subtilis; assay: Antibacterial activity against Bacillus subtilis 168 assessed as inhibition of bacterial growth incubated for 6 hrs by agar dilution method; assay type: functional
[30] = test system: Streptococcus pneumoniae; assay: Antibacterial activity against Streptococcus pneumoniae TIGR4 assessed as inhibition of bacterial growth incubated for 24 hrs by agar dilution method; assay type: functional
[31] = test system: Staphylococcus aureus; assay: Antibacterial activity against Staphylococcus aureus; assay type: functional
[32] = test system: Staphylococcus aureus; assay: Antibacterial activity against Staphylococcus aureus assessed as inhibition of bacterial growth incubated for 16 to 24 hrs by CLSI based microdilution assay; assay type: functional; conditions: time 16-24 hrs
[33] = test system: Acinetobacter baumannii; assay: Antibacterial activity against Acinetobacter baumannii ATCC 19606 assessed as inhibition of bacterial growth incubated for 18 hrs by microbroth dilution method; assay type: functional
[34] = molecular target: T1, Cell division protein FtsZ (Streptococcus pneumoniae serotype 2 (strain D39 / NCTC 7466)); assay: Inhibition of Streptococcus pneumoniae FtsZ assessed as increase in GTPase activity by measuring increase in inorganic phosphate release at >20 uM pretreated for 20 mins followed by GTP addition and measured after 10 mins by malachite green assay based UV-Vis spectrophometry; conditions: time 30.0 min

SMILES: CCOC(=O)c1c(CSc2ccc(OC)cc2)nc2ccc(Br)cn12
- inhibition [1]: 34%
- Activity [2]: inactive
- Activity [3]: 17%
- TIME [4]: 0.0644 h
- Activity [5]: inactive
- Activity [6]: 13 nm
- Activity [7]: inactive
- inhibition [8]: 59%
- IC50 ([9]; TIGR4, 24 h): 17 µM
- MIC ([9]; TIGR4, time 24 hrs): 20 µg/mL (≈ 47.5 µM)
- inhibition [10]: 75%
- Activity [11]: inactive
- Activity [12]: inactive
- inhibition [13]: Active
- Activity [14]: inactive
- Activity [15]: inactive
- Activity [16]: inactive
- inhibition [17]: Active
- inhibition at 10 µM [18]: 67%
- Activity [19]: 46%
- inhibition [20]: Active
- inhibition [21]: 54%
- Activity [22]: Active
- Activity [23]: 28%
- inhibition [24]: Active
- INH [25]: 0.05 AU/sec
- IC50 at 24 h [26]: 41 µM

SMILES: CC(NC(=O)c1nc2ccccc2n1-c1ccccc1)c1ccccc1 (stereo unspecified)
- MIC [27]: 1.56 µg/mL (≈ 4.57 µM)
- MIC [28]: 0.78 µg/mL (≈ 2.28 µM)

SMILES: CCOC(=O)c1c(CSc2nc3ccccc3[nH]2)nc2ccc(Br)cn12
- Activity [16]: inactive
- inhibition at 10 µM [18]: 37%

SMILES: CCOC(=O)c1c(CSc2ccc([N+](=O)[O-])cc2)nc2ccc(Br)cn12
- Activity [16]: inactive
- inhibition at 10 µM [18]: 0%

SMILES: CCOC(=O)c1c(CSc2ccc(Cl)cc2)nc2ccc(Br)cn12
- Activity [16]: inactive
- inhibition at 10 µM [18]: 17%

SMILES: O=C(CCc1ccc(O)cc1)C1=C(O)C(Cc2ccc(O)cc2)CCC1 (stereo unspecified)
- MIC [29]: ~3.8 µg/mL (≈ 10.8 µM)
- MIC [30]: ~0.7 µg/mL (≈ 1.99 µM)

SMILES: NC(=O)c1c(F)ccc(OCc2nc3cc(Cl)cnc3s2)c1F
- MIC [27]: 1 µg/mL (≈ 2.81 µM)
- MIC [31]: 0.5 µg/mL (≈ 1.41 µM)

SMILES: NC(=O)c1c(F)ccc(OCc2nc3cc(C(F)(F)F)cnc3s2)c1F
- MIC [32]: 2 µg/mL (≈ 5.14 µM)

SMILES: CCOC(=O)c1c(CSc2ccccc2)nc2ccc(Br)cn12
- Activity [16]: inactive
- inhibition at 10 µM [18]: 25%

SMILES: Cc1nc2ccccc2n1C(=O)/C=C/c1ccc(Br)cc1
- MIC [33]: 32 µg/mL (≈ 93.8 µM)

SMILES: CCOC(=O)c1c(CSc2ccc(Br)cc2)nc2ccc(Br)cn12
- Activity [16]: inactive
- inhibition at 10 µM [18]: 0%

SMILES: CCOC(=O)c1c(CSc2ccccc2OC)nc2ccc(Br)cn12
- Activity [16]: inactive
- inhibition at 10 µM [18]: 17%

SMILES: CC1=CC(=O)c2ccccc2C1=O [MENADIONE]
- inhibition at 10 µM [18]: 100%

SMILES: CCOC(=O)c1c(CSc2ccc3ccccc3c2)nc2ccc(Br)cn12
- Activity [16]: inactive
- inhibition at 10 µM [18]: 54%
- inhibition [34]: inactive
- inhibition [20]: Active

SMILES: CCOC(=O)c1c(CSc2ccccc2Br)nc2ccc(Br)cn12
- Activity [16]: inactive
- inhibition at 10 µM [18]: 0%

SMILES: CCOC(=O)c1c(CSc2ccncc2)nc2ccc(Br)cn12
- Activity [16]: inactive
- inhibition at 10 µM [18]: 31%
